“Also recorded” adds a separate entry of the source. Each block holds one compound with its values, some of them ahead of it.
Assays:
[1] = system: 10 other cyclophilins with reported prolyl isomerase activity; assay: cyclophilin specificity screen: CypD against the other cyclophilins; type: biochemical
Excerpt: (§1) The selectivity of a compound described herein in inhibiting the activity of a first cyclophilin (e.g., CypD) over a second cyclophilin may be measured by the quotient of the IC50 value of the compound in inhibiting the activity of the second cyclophilin over the IC50 value of the compound in inhibiting the activity of the first cyclophilin. The selectivity of a compound described herein in modulating the activity of a first cyclophilin over a second cyclophilin may also be measured by the quotient of the Kd value of an adduct of the compound and the second cyclophilin over the Kd value of an adduct of the compound and the first cyclophilin (e.g., CypD). […] In certain embodiments, selectivity for inhibiting a first cyclophilin over other cyclophilins is measured by Surface Plasmon Resonance (SPR) assays as disclosed in the Examples.
(§2) Following the synthesis of the indicated library members, in vitro inhibition (IC50) assays of these hits were conducted to obtain IC50 inhibitory data. For the IC50 assays, a chymotrypsin coupled PPIase assay using Suc-AAPF-AMC as the peptide substrate was used, whereby isomerization of a peptide substrate Suc-AAPF-AMC from the cis to trans conformation allowed for proteolysis via excess a-chymotrypsin, releasing the C-terminal coumarin fluorophore.
Subsequently, to determine if the compounds could both access the S2 pocket and display CypD specificity, JOMBtrans and compound 49 were screened against the 10 other cyclophilins with reported prolyl isomerase activity. […] Co-crystal structures of JOMBtrans and 49 were solved with CypD.

CypD = CypD (Homo sapiens, UniProt P30405); assay: chymotrypsin coupled PPIase assay (Suc-AAPF-AMC substrate), CypD inhibition; type: biochemical
Sequence of CypD (P30405 30-207): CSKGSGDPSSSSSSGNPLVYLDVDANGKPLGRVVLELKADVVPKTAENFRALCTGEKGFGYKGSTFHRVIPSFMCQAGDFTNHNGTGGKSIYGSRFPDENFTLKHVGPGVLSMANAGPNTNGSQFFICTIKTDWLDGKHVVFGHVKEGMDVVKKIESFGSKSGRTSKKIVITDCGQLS
Excerpt: as §1, §2

CypG = target: T1, CypG (Homo sapiens, UniProt Q13427); assay: chymotrypsin coupled PPIase assay, CypG inhibition; type: biochemical; conditions: result in words
T1 sequence (Q13427 1-754): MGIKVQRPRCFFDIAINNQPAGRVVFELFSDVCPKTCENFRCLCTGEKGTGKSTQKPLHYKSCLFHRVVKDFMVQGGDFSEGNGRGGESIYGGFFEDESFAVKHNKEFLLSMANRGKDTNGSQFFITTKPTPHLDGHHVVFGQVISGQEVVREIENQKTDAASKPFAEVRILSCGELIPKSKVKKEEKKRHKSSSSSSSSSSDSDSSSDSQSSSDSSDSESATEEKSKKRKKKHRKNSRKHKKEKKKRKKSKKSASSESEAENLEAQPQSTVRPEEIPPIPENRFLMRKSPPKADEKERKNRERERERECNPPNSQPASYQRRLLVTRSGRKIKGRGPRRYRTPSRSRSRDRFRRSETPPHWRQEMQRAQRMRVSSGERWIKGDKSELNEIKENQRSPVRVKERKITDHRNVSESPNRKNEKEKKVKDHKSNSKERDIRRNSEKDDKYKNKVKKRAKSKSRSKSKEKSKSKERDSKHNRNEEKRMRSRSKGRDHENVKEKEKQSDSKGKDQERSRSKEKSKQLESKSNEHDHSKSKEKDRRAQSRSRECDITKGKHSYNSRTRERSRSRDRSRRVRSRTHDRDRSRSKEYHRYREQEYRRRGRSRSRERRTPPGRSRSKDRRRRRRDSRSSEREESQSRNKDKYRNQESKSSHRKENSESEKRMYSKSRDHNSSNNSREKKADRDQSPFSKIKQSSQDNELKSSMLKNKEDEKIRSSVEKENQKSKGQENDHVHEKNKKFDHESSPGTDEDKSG
Protocol: as §2, with “fluorophore. […] Other non-inhibitor library members were also checked for binding via SPR, but produced the same profile as the prolyl isomerase assay.” for “fluorophore.”
(§3) Subsequently, to determine if the compounds could both access the S2 pocket and display CypD specificity, JOMBtrans and compound 49 were screened against the 10 other cyclophilins with reported prolyl isomerase activity. […] Co-crystal structures of JOMBtrans and 49 were solved with CypD. […] Three further H-bonds with the macrocycle's backbone and CypD were observed along with a cation-n interaction. […] The benzyl group on the piperidine ring altered the conformation of the macrocycle to open up two new hydrogen bonding interactions with CypD. […] This improvement in specificity compared to JOMBtrans signified that more CypD specific compounds can be garnered by derivatization into the S2 pocket.

NKTR = target: T2, NKTR (Homo sapiens, UniProt P30414); assay: chymotrypsin coupled PPIase assay, NKTR inhibition; type: biochemical; conditions: result in words
T2 sequence (P30414 1-1462): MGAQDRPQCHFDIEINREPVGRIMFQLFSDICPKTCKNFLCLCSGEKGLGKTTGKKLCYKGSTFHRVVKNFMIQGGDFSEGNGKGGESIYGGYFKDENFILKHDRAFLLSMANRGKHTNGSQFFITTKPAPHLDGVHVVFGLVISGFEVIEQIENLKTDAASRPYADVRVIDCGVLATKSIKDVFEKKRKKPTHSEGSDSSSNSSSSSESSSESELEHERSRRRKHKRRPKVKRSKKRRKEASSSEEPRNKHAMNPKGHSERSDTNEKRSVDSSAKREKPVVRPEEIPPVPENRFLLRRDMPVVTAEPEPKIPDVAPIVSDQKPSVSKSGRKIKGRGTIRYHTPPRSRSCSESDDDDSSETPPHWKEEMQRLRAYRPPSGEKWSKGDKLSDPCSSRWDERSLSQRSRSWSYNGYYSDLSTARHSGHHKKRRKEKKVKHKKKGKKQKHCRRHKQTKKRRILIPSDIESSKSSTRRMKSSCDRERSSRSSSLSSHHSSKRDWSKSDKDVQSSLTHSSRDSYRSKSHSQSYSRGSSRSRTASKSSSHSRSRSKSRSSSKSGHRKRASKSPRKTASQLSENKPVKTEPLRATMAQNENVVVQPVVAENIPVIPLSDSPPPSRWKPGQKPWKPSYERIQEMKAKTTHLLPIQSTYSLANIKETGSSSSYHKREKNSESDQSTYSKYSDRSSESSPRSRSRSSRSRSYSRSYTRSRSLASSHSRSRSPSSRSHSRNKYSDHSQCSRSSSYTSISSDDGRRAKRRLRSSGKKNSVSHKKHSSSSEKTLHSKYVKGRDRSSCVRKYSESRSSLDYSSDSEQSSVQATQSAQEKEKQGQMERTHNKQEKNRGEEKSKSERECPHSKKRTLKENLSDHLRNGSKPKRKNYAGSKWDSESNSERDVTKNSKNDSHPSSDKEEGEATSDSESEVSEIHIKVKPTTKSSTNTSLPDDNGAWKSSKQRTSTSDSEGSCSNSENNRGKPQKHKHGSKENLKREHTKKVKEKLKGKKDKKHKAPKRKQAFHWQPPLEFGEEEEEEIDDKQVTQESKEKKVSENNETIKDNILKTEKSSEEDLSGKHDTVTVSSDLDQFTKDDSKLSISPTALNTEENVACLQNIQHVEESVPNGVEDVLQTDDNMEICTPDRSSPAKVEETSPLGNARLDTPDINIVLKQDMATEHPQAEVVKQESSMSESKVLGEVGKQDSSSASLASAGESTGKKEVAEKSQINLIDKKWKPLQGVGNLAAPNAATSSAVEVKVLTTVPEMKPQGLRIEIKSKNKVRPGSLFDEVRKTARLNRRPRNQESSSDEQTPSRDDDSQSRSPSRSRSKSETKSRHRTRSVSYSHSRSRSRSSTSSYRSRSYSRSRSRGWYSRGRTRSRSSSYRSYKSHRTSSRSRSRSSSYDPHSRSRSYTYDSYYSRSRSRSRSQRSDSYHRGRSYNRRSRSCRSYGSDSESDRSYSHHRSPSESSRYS
Protocol: as §2, with “fluorophore. […] Other non-inhibitor library members were also checked for binding via SPR, but produced the same profile as the prolyl isomerase assay.” for “fluorophore.”
as §3

CypH = CypH (Homo sapiens, UniProt O43447); assay: chymotrypsin coupled PPIase assay, CypH inhibition; type: biochemical; conditions: result in words
Sequence of CypH (O43447 whole entry): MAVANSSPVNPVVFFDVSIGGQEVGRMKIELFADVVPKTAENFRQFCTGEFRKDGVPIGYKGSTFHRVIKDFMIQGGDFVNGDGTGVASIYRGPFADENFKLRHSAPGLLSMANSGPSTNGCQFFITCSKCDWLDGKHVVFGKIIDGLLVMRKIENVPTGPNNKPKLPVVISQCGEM
Protocol: as §2, with “fluorophore. […] Other non-inhibitor library members were also checked for binding via SPR, but produced the same profile as the prolyl isomerase assay.” for “fluorophore.”
as §3

PPWD1 = target: T3, PPWD1 (Homo sapiens, UniProt Q96BP3); assay: chymotrypsin coupled PPIase assay, PPWD1 inhibition; type: biochemical; conditions: result in words
T3 sequence (Q96BP3 1-646): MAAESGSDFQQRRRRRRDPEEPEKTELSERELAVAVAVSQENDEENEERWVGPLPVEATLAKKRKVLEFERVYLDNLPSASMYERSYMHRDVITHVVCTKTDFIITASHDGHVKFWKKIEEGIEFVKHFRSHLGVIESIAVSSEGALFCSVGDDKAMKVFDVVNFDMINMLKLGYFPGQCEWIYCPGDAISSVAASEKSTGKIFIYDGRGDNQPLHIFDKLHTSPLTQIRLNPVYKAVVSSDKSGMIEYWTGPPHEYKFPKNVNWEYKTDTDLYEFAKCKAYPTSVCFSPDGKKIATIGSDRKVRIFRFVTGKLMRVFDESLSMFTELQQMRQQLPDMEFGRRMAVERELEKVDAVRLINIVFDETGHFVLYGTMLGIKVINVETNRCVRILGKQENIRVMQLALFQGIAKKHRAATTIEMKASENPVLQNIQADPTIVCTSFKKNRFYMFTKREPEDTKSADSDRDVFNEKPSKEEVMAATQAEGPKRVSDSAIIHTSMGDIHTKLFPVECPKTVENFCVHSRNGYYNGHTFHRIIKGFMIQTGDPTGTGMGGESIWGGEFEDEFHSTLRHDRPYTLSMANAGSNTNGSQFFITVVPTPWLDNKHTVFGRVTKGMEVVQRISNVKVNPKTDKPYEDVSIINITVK
Protocol: as §2, with “fluorophore. […] Other non-inhibitor library members were also checked for binding via SPR, but produced the same profile as the prolyl isomerase assay.” for “fluorophore.”
as §3

[2] = system: mPTP in isolated mice kidney mitochondria; assay: inhibition of mPTP in isolated mitochondria (tolerated Ca2+ pulses before full mPTP opening); conditions: result in words
Protocol: In isolated mice kidney mitochondria, the maximum number of Ca^2+ pulses that could be tolerated before full mPTP opening was measured (see FIG. 24).

SMILES: NC(=O)[C@@H]1CCNC(=O)/C=C/C(=O)N2CCC[C@](Cc3ccccc3)(C2)C(=O)N[C@@H](Cc2ccc(-c3ccc(CCC(=O)O)cc3)cc2)C(=O)NCc2ccccc2CC(=O)N1 [A-81b]
number of tolerated Ca2+ pulses before full mPTP opening [2]: extended pulse number; also recorded: almost as potent as CsA

SMILES: CC(=O)c1ccc(-c2ccc(C[C@@H]3NC(=O)[C@]4(Cc5ccccc5)CCCN(C4)C(=O)/C=C/C(=O)NCC[C@@H](C(N)=O)NC(=O)Cc4ccccc4CNC3=O)cc2)cc1 [A-22b]
number of tolerated Ca2+ pulses before full mPTP opening [2]: extended pulse number

SMILES: NCCOCCNC(=O)[C@@H]1CCNC(=O)/C=C/C(=O)N2CCC[C@](Cc3ccccc3)(C2)C(=O)N[C@@H](Cc2ccc(-c3ccc(C(=O)O)cc3)cc2)C(=O)NCc2ccccc2CC(=O)N1 [A-54]
specificity / selectivity profile for CypD (in words) ([1]; result in words): best specificity profiles; also recorded: preference for CypD

SMILES: NCCOCCNC(=O)[C@@H]1CCNC(=O)/C=C/C(=O)N2CCC[C@](Cc3ccccc3)(C2)C(=O)N[C@@H](Cc2ccc(C(=O)c3ccccc3)cc2)C(=O)NCc2ccccc2CC(=O)N1 [A-1]
inhibition of CypG (CypG): abolished inhibition
inhibition of NKTR (NKTR): abolished inhibition
inhibition of CypH (CypH): abolished inhibition
inhibition of PPWD1 (PPWD1): abolished inhibition

SMILES: Cc1cc(C(=O)O)ccc1-c1ccc(C[C@@H]2NC(=O)[C@]3(Cc4ccccc4)CCCN(C3)C(=O)/C=C/C(=O)NCC[C@@H](C(=O)NCCOCCN)NC(=O)Cc3ccccc3CNC2=O)cc1 [A-57]
specificity / selectivity profile for CypD (in words) ([1]; result in words): best specificity profiles; also recorded: preference for CypD

Now from value to compound, other results behind:

specificity for CypD compared to any other cyclophilins [1]: approximately 10 fold
decrease in inhibition against other family members compared to CypD ([1]; result in words): at most a ten-fold decrease
increase in potency compared to JOMBtrans (CypD): 75 fold
IC50 (CypD; read-out: potency for CypD): 200 nM
potency for CypD (in words) (CypD; result in words): low potency
SMILES: NCCOCCNC(=O)[C@@H]1CCNC(=O)/C=C/C(=O)N2CCC[C@](Cc3ccccc3)(C2)C(=O)N[C@@H](Cc2ccco2)C(=O)NCc2ccccc2CC(=O)N1 [compound 49]
specificity / selectivity profile for CypD (in words) ([1]; result in words): low specificity; also recorded: very promiscuous cyclophilin inhibition

inhibition of CypG (CypG): abolished inhibition
inhibition of NKTR (NKTR): abolished inhibition
inhibition of CypH (CypH): abolished inhibition
inhibition of PPWD1 (PPWD1): abolished inhibition
SMILES: CC(C)(C)c1ccc(C[C@@H]2NC(=O)[C@]3(Cc4ccccc4)CCCN(C3)C(=O)/C=C/C(=O)NCC[C@@H](C(=O)NCCOCCN)NC(=O)Cc3ccccc3CNC2=O)cc1 [A-9]

specificity / selectivity profile for CypD (in words) ([1]; result in words): preference for CypD
SMILES: NCCOCCNC(=O)[C@@H]1CCNC(=O)/C=C/C(=O)N2CCC[C@](Cc3ccccc3)(C2)C(=O)N[C@@H](Cc2ccc(-c3ccc(CC(=O)O)cc3)cc2)C(=O)NCc2ccccc2CC(=O)N1 [A-63]

specificity / selectivity profile for CypD (in words) ([1]; result in words): preference for CypD
SMILES: NCCOCCNC(=O)[C@@H]1CCNC(=O)/C=C/C(=O)N2CCC[C@](Cc3ccccc3)(C2)C(=O)N[C@@H](Cc2ccc(-c3ccc(/C=C/C(=O)O)cc3)cc2)C(=O)NCc2ccccc2CC(=O)N1 [A-82]
